Common to all, as to assay type: cell-based
Assay [1] relates to HCC827-SVD cells (human EGFR exon 20 insertion mutant D770_N771 insSVD). The assay is described as follows: Cell growth inhibition (CellTiter-Glo, 3 days) in HCC827-SVD. As to conditions: 72 h, 3 days after administration. The method, boiled down:
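HCC827 cells carrying lentiviral codon-optimized EGFR D770_N771 insSVD, with endogenous EGFR knocked out by CRISPR (single clone), seeded at 5000 cells/well in RPMI with 10% FBS. Viability read by CellTiter-Glo luminescence.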
In general terms: In ATP-based viability assays light output follows the ATP content of the culture.

The subject of assay [2] is A431 cells. The assay is described as follows: Cell growth inhibition (CellTiter-Glo, 3 days) in A431. As to conditions: Homo sapiens, A-431, 72 h, 3 days after administration. The gist of the method: (§1)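 HCC827 cells were plated at 5000 cells/well in RPMI with 10% FBS, and A431 cells at the same density in DMEM with 10% FBS. After overnight attachment, compounds were added at various concentrations. Luminescence was recorded after plates were equilibrated to room temperature and incubated 10 min with reagent.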

The subject of assay [3] is HCC827-ASV cells (human EGFR exon 20 insertion mutant A769_D770insASV). The assay is described as follows: Cell growth inhibition (CellTiter-Glo, 3 days) in HCC827-ASV. The conditions noted are these: 72 h, 3 days after administration. The gist of the method: (§2)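 Growth inhibition used a CellTiter-Glo luminescence read-out after 3 days of compound exposure at various concentrations. Cells were plated the day before at 5000/well in RPMI plus 10% FBS. The lines are HCC827 transduced by lentivirus with codon-optimized EGFR ASV or ERBB2 YVMA exon 20 insertions.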

The test system of assay [4] is HCC827-YVMA cells (human ERBB2 exon20 insertion mutant A775_G776ins YVMA). Description: Cell growth inhibition (CellTiter-Glo, 3 days) in HCC827-YVMA. As to conditions: 72 h, 3 days after administration. The gist of the method:
as §2

For assay [5], the system named is HCC827 cells. Description: Cell growth inhibition (CellTiter-Glo, 3 days) in HCC827. The conditions noted are these: Homo sapiens, 72 h, 3 days after administration. The gist of the method:
as §1

In general, GI50 refers to the concentration that inhibits growth by half. A high value points to lower sensitivity of the cells.

The structures appear in SMILES notation.

For the molecule `C=CC(=O)N1CCC(Nc2cc3c(Nc4ccc(Oc5ccnc(N6CCN(C)[C@@H](C)C6)c5)cc4F)ncnc3cc2OC)CC1` [Example 179, (S)-1-(4-((4-((4-((2-(3,4-dimethylpiperazin-1-yl)pyridin-4-yl)oxy)-2-fluorophenyl)amino)-7-methoxyquinazolin-6-yl)amino)piperidin-1-yl)prop-2-en-1-one], the concentration for 50% growth inhibition (GI50) in assay [1] was 60 to 100 nM; in assay [2], not below 1000 nM; in assay [3], less than 30 nM; in assay [4], 30 to 60 nM; in assay [5] it was not below 1000 nM.
Turning to `C=CC(=O)N1CCC(Nc2cc3c(Nc4ccc(Oc5ccnc(N6CCN(C)[C@H](C)C6)c5)cc4F)ncnc3cc2OC)CC1` [Example 180, (R)-1-(4-((4-((4-((2-(3,4-dimethylpiperazin-1-yl)pyridin-4-yl)oxy)-2-fluorophenyl)amino)-7-methoxyquinazolin-6-yl)amino)piperidin-1-yl)prop-2-en-1-one], the GI50 was 30 to 60 nM in assay [1]; not below 1000 nM in assay [2]; 30 to 60 nM in assay [3]; 30 to 60 nM in assay [4]; not below 1000 nM in assay [5].
Take `C=CC(=O)N1CCC(Nc2cc3c(Nc4ccc(Oc5ccnc(C(=O)N(C)C)c5)cc4F)ncnc3cc2OC)CC1` [Example 182, 4-(4-((6-((1-acryloylpiperidin-4-yl)amino)-7-methoxyquinazolin-4-yl)amino)-3-fluorophenoxy)-N,N-dimethylpicolinamide]: the GI50 was 600 to 1000 nM in assay [1]; not below 1000 nM in assay [2]; 600 to 1000 nM in assay [3]; 300 to 600 nM in assay [4]; 600 to 1000 nM in assay [5].
Consider `C=CC(=O)N1CCC(Nc2cc3c(Nc4ccc(Oc5ccnc(NC6COC6)c5)cc4F)ncnc3cc2OC)CC1` [Example 183, 1-(4-((4-((2-fluoro-4-((2-(oxetan-3-ylamino)pyridin-4-yl)oxy)phenyl)amino)-7-methoxyquinazolin-6-yl)amino)piperidin-1-yl)prop-2-en-1-one], for which the 50% growth inhibitory concentration (GI50) in assay [1], in assay [2], in assay [3], in assay [4] and in assay [5] was not below 1000 nM in each case.
Regarding `C=CC(=O)N1CCC(Nc2cc3c(Nc4ccc(Oc5ccnc(NC6CCN(C)CC6)c5)cc4F)ncnc3cc2OC)CC1` [Example 184, 1-(4-((4-((2-fluoro-4-((2-((1-methylpiperidin-4-yl)amino)pyridin-4-yl)oxy)phenyl)amino)-7-methoxyquinazolin-6-yl)amino)piperidin-1-yl)prop-2-en-1-one], the concentration for 50% growth inhibition (GI50) in assay [1], in assay [2], in assay [3], in assay [4] and in assay [5] was not below 1000 nM in each case.
In the case of `C=CC(=O)N1CCC(Nc2cc3c(Nc4ccc(Oc5ccnc(C6CCN(C)CC6)c5)cc4F)ncnc3cc2OC)CC1` [Example 186, 1-(4-((4-((2-fluoro-4-((2-(1-methylpiperidin-4-yl)pyridin-4-yl)oxy)phenyl)amino)-7-methoxyquinazolin-6-yl)amino)piperidin-1-yl)prop-2-en-1-one], the GI50 was not below 1000 nM in assay [1]; not below 1000 nM in assay [2]; not below 1000 nM in assay [3]; not below 1000 nM in assay [4]; 600 to 1000 nM in assay [5].
For the molecule `C=CC(=O)N1CCC(Nc2cc3c(Nc4ccc(Oc5ccnc(N6CCN(C(C)C)CC6)c5)cc4F)ncnc3cc2OC)CC1` [Example 187, 1-(4-((4-((2-fluoro-4-((2-(4-isopropylpiperazin-1-yl)pyridin-4-yl)oxy)phenyl)amino)-7-methoxyquinazolin-6-yl)amino)piperidin-1-yl)prop-2-en-1-one], the GI50 was 100 to 300 nM in assay [1]; not below 1000 nM in assay [2]; 100 to 300 nM in assay [3]; 300 to 600 nM in assay [4]; not below 1000 nM in assay [5].
As to `C=CC(=O)N1CCC(Oc2cc3c(Nc4ccc(Oc5ccnc(N6CC7C(C6)C7(F)F)c5)cc4F)ncnc3cc2OC)CC1` (centres unmarked) [Example 188, 1-(4-((4-((4-((2-(6,6-difluoro-3-azabicyclo[3.1.0]hexan-3-yl)pyridin-4-yl)oxy)-2-fluorophenyl)amino)-7-methoxyquinazolin-6-yl)oxy)piperidin-1-yl)prop-2-en-1-one], the GI50 in assay [1] is less than 30 nM; in assay [2], 100 to 300 nM; in assay [3] it was less than 30 nM; in assay [4] it was 30 to 60 nM; in assay [5], 60 to 100 nM.
Regarding `C=CC(=O)N1CCC(Nc2cc3c(Nc4ccc(Oc5ccnc(N6C[C@H](OC)[C@H](OC)C6)c5)cc4F)ncnc3cc2OC)CC1` [Example 189, 1-(4-((4-((4-((2-((3R,4S)-3,4-dimethoxypyrrolidin-1-yl)pyridin-4-yl)oxy)-2-fluorophenyl)amino)-7-methoxyquinazolin-6-yl)amino)piperidin-1-yl)prop-2-en-1-one], the GI50 is less than 30 nM in assay [1]; not below 1000 nM in assay [2]; less than 30 nM in assay [3]; less than 30 nM in assay [4]; 300 to 600 nM in assay [5].
As for `C=CC(=O)N1CCC(Nc2cc3c(Nc4ccc(Oc5ccnc(N6C[C@H]7COC[C@H]7C6)c5)cc4F)ncnc3cc2OC)CC1` [Example 190, 1-(4-((4-((2-fluoro-4-((2-((3aR,6aS)-tetrahydro-1H-furo[3,4-c]pyrrol-5(3H)-yl)pyridin-4-yl)oxy)phenyl)amino)-7-methoxyquinazolin-6-yl)amino)piperidin-1-yl)prop-2-en-1-one], the GI50 in assay [1] is less than 30 nM; in assay [2], 300 to 600 nM; in assay [3] it was less than 30 nM; in assay [4], less than 30 nM; in assay [5], 30 to 60 nM.
Consider `C=CC(=O)N1CCC(Nc2cc3c(Nc4ccc(Oc5ccnc(-c6nc(C)ns6)c5)cc4F)ncnc3cc2OC)CC1` [Example 192, 1-(4-((4-((2-fluoro-4-((2-(3-methyl-1,2,4-thiadiazol-5-yl)pyridin-4-yl)oxy)phenyl)amino)-7-methoxyquinazolin-6-yl)amino)piperidin-1-yl)prop-2-en-1-one], for which the GI50 in assay [1] is less than 30 nM; in assay [2] it was 100 to 300 nM; in assay [3], less than 30 nM; in assay [4] it was less than 30 nM; in assay [5], 60 to 100 nM.
In the case of `C=CC(=O)N1CCC(Nc2cc3c(Nc4ccc(Oc5ccnc(N6CCC(F)(F)C6)c5)cc4F)ncnc3cc2OC)CC1` [Example 194, 1-(4-((4-((4-((2-(3,3-difluoropyrrolidin-1-yl)pyridin-4-yl)oxy)-2-fluorophenyl)amino)-7-methoxyquinazolin-6-yl)amino)piperidin-1-yl)prop-2-en-1-one], the GI50 is less than 30 nM in assay [1]; 300 to 600 nM in assay [2]; less than 30 nM in assay [3]; less than 30 nM in assay [4]; 60 to 100 nM in assay [5].
Turning to `C=CC(=O)N1CCC(Nc2cc3c(Nc4ccc(Oc5ccnc(N6CC[C@@H](F)C6)c5)cc4F)ncnc3cc2OC)CC1` [Example 195, (R)-1-(4-((4-((2-fluoro-4-((2-(3-fluoropyrrolidin-1-yl)pyridin-4-yl)oxy)phenyl)amino)-7-methoxyquinazolin-6-yl)amino)piperidin-1-yl)prop-2-en-1-one], the GI50 in assay [1] was less than 30 nM; in assay [2], 600 to 1000 nM; in assay [3], less than 30 nM; in assay [4], less than 30 nM; in assay [5], 100 to 300 nM.

These data come from patent US20240398805A1, “QUINAZOLINE DERIVED COMPOUNDS AS EGFR INHIBITORS AND THEIR USES THEREOF” (ACCUTAR BIOTECHNOLOGY INC., priority 2021, published 2024).
